Experimental data from patent US7304093B2, “Ketone compounds and compositions for cholesterol management and related uses” (Esperion Therapeutics, Inc., priority 2000, dated 2007).
Where two headings read alike, the source gives them in different places.

Tests used:
female obese Zucker rats = experiment: Serum lipid and glycemic control variables in chow-fed obese female Zucker rats, daily oral gavage for two weeks; type: in vivo, rat; settings: Rattus norvegicus; for change in vivo at 100 mg/kg: 100 mg/kg daily oral, 100% = 2-fold increase, Table 8; for change in vivo at 30 mg/kg: 30 mg/kg daily oral, Table 9
Method: Ten- to twelve-week old (400-500 grams) female Zucker fatty rats Cr1: (Zuc)-faBR were obtained from Charles River Laboratories. Animals were acclimated to the laboratory environment for seven days. During the acclimation and study period, animals were housed by group in shoebox polycarbonate cages on Cellu-Dri bedding. The temperature and humidity in the animals' quarters (68-78° F.; 30-75% RH) were monitored and the airflow in the room was sufficient to provide several exchanges per hour with 100% fresh filtered air. An automatic timing device provided an alternating 12-hour cycle of light and dark. Rats received pelleted Purina Laboratory Rodent Chow® (5001) prior to and during the drug intervention period except for a 6-hour phase prior to blood sampling. Fresh water was supplied ad libitum via an automatic watering system. Compounds were dissolved, suspended by mixing in a dosing vehicle consisting of 1.5% carboxymethylcellulose/0.2% Tween 20 or 20% ethanol and 80% polyethylene glycol-200 [v/v]. Dose volume of vehicle or vehicle plus each compound was set at 0.25% of body weight in order to deliver the appropriate dose. Doses were administered daily by oral gavage, approximately between 8-10 AM. Regarding blood sampling, animals were fasted for 6 hours prior to all blood collections. Prior to and after 7 days of dosing, a 1.0- to 2.0-mL sample of blood was collected by administering O2/CO2 anesthesia and bleeding from the orbital venous plexus. Following 14 days of dosing, blood was collected by cardiac puncture after euthanasia with CO2. All blood samples were processed for separation of serum and stored at −80° C. until analysis. Commercially available kits were used to determine serum triglycerides (Roche Diagnostic Corporation, Kit No. 148899 or Boehringer Mannheim, Kit No. 1488872), total cholesterol (Roche Diagnostic Corporation, Kit No. 450061), non-esterified fatty acids (Wako Chemicals, Kit No. 994-75409) and β-hydroxybutyrate (Wako Chemicals, Kit No. 417-73501 or Sigma Kit. No. 310-0) on a Hitachi 912 Automatic Analyzer (Roche Diagnostic Corporation). In some instances, an in-house cholesterol reagent was used to determine total serum cholesterol levels. Serum lipoprotein cholesterol levels were determined by lipoprotein profile analysis. Lipoprotein profiles were analyzed using gel-filtration chromatography on a Superose 6HR (1×30 cm) column equipped with on-line detection of total cholesterol as described by Kieft et al (Kieft, K. A.; Bocan, T. M.; Krause, B. R. Rapid on-line determination of cholesterol distribution among plasma lipoproteins after high-performance gel filtration chromatography. J. Lipid Res. 1991, 32, 859-866.). The total cholesterol content of each lipoprotein was calculated by multiplying the independent values determined for serum total cholesterol by the percent area of each lipoprotein in the profile. The percent body weight gain and the ratio of liver to body weight is also determined. Selected data are shown as absolute values or as a percent change of the pretreatment values in Tables 8 and 9.
Select compounds (214c, 210c, and 210g) were further evalutated in the Zucker rat by performing a full dose response and measuring additional scrum variables including markers for diabetes (Tables 10-12).

primary rat hepatocytes = experiment: Inhibition of lipid synthesis ([1-14C]-acetate incorporation) in primary cultures of rat hepatocytes; type: cell-based; settings: Hepatocyte, 4 h incubation with [1-14C]-acetate
Method: Compounds were tested for inhibition of lipid synthesis in primary cultures of rat hepatocytes. Male Sprague-Dawley rats were anesthetized with intraperitoneal injection of sodium pentobarbital (80 mg/kg). Rat hepatocytes were isolated essentially as described by the method of Seglen (Seglen, P. O. Hepatocyte suspensions and cultures as tools in experimental carcinogenesis. J. Toxicol. Environ. Health 1979, 5, 551-560). Hepatocytes were suspended in Dulbecco's Modified Eagles Medium containing 25 mM D-glucose, 14 mM HEPES, 5 mM L-glutamine, 5 mM leucine, 5 mM alanine, 10 mM lactate, 1 mM pyruvate, 0.2% bovine serum albumin, 17.4 mM non-essential amino acids, 20% fetal bovine serum, […] and 20 μg/mL gentamycin) and plated at a density of 1.5×10^5 cells/cm^2 on collagen-coated 96-well plates. Four hours after plating, media was replaced with the same media without serum. Cells were grown overnight to allow formation of monolayer cultures. Lipid synthesis incubation conditions were initially assessed to ensure the linearity of [1-^14C]-acetate incorporation into hepatocyte lipids for up to 4 hours. Hepatocyte lipid synthesis inhibitory activity was assessed during incubations in the presence of 0.25 μCi [1-^14C]-acetate/well (final radiospecific activity in assay is 1 Ci/mol) and 0, 1, 3, 10, 30, 100 or 300 μM of compounds for 4 hours. At the end of the 4-hour incubation period, medium was discarded and cells were washed twice with ice-cold phosphate buffered saline and stored frozen prior to analysis. To determine total lipid synthesis, 170 μl of MicroScint-E® and 50 μl water was added to each well to extract and partition the lipid soluble products to the upper organic phase containing the scintillant. Lipid radioactivity was assessed by scintillation spectroscopy in a Packard TopCount NXT.

[1] = 168 h, 1 wk, read-out: HDL-Cholesterol, Percent Change from Pre-Treatment
[2] = 168 h, 1 wk, read-out: NonHDL-Cholesterol, Percent Change from Pre-Treatment
[3] = 168 h, 1 wk, read-out: TG, Percent Change from Pre-Treatment
[4] = 336 h, 2 wk, read-out: HDL-Cholesterol, Percent Change from Pre-Treatment
[5] = 336 h, 2 wk, read-out: NonHDL-Cholesterol, Percent Change from Pre-Treatment
[6] = 336 h, 2 wk, read-out: TG, Percent Change from Pre-Treatment
[7] = Table 7, ranges: confidence of estimate insufficient to assign a value

SMILES | change in vivo at 100 mg/kg (female obese Zucker rats; [1]) [%] | change in vivo at 100 mg/kg (female obese Zucker rats; [2]) [%] | change in vivo at 100 mg/kg (female obese Zucker rats; [3]) [%] | change in vivo at 100 mg/kg (female obese Zucker rats; [4]) [%] | change in vivo at 100 mg/kg (female obese Zucker rats; [5]) [%] | change in vivo at 100 mg/kg (female obese Zucker rats; [6]) [%] | melting point [°C] | IC50 (primary rat hepatocytes; Table 6) [µM] | change in vivo at 30 mg/kg (female obese Zucker rats; [1]) [%] | change in vivo at 30 mg/kg (female obese Zucker rats; [2]) [%] | change in vivo at 30 mg/kg (female obese Zucker rats; [3]) [%] | change in vivo at 30 mg/kg (female obese Zucker rats; [4]) [%] | change in vivo at 30 mg/kg (female obese Zucker rats; [5]) [%] | change in vivo at 30 mg/kg (female obese Zucker rats; [6]) [%] | IC50 (primary rat hepatocytes; [7]) [µM]
CC(C)(CCCCCCCC(=O)CCCCCCCC(C)(C)C(=O)O)C(=O)O [Compound 107n, 10-Oxo-2,2,18,18-tetramethyl-nonadecanedioic acid] | 44 | -80 | -85 | 86 | -45 | -64 | 74 to 77 | 10 |  |  |  |  |  |  | 
Cc1ccc(C(C)(CCCCC(=O)CCCCC(C)(C(=O)O)c2ccc(C)cc2)C(=O)O)cc1 (centres unmarked) [Compound 210e, 2,12-Dimethyl-7-oxo-2,12-di-p-tolyltridecanedioic acid] |  |  |  |  |  |  | 48 to 50 |  | 0 | 0 | -11 | 10 | 47 | 12 | 100 to 300
CC(C)(CCCCC(=O)CCCCC1(C(=O)O)CCC1)C(=O)O [Compound 107e, 11-(1-Carboxycyclobutyl)-2,2-dimethyl-7-oxoundecanoic acid] | 30 | 4 | -54 | 60 | 28 | -51 | 53 to 55 | 6 |  |  |  |  |  |  | 
O=C(CCCCCC1(C(=O)O)CCCC1)CCCCCC1(C(=O)O)CCCC1 [Compound 107m, 1-[11-(1-Carboxycyclopentyl)-6-oxoundecyl]-1-cyclopentanecarboxylic acid] | 12 | -54 | -63 | 27 | -32 | -48 | 78 to 85 | 2 |  |  |  |  |  |  | 
CC(C)(CCCCC(=O)CCCC(C)(C)C(=O)O)C(=O)O [Compound 225, 2,2,11,11-Tetramethyl-6-oxododecanedioc acid] |  |  |  |  |  |  | 72 to 73 |  | 7 | -17 | -2 | 4 | 92 | -22 | 8
O=C(CCCCC1(C(=O)O)CC1)CCCCC1(C(=O)O)CC1 [Compound 107d, 1-[9-(1-Carboxycyclopropyl)-5-oxononyl]-1-cyclopropanecarboxylic acid] | 180 | 22 | -51 | 260 | 63 | -28 | 132 to 134 | 0.3 |  |  |  |  |  |  | 
O=C(CCCCCC1(C(=O)O)CC1)CCCCCC1(C(=O)O)CC1 [Compound 107l, 1-[11-(1-Carboxycyclopropyl)-6-oxoundecyl]-1-cyclopropanecarboxylic acid] | 136 | -92 | -95 | 171 | -83 | -94 | 122 to 123 | 0.5 |  |  |  |  |  |  | 
CC(C)(CCCCCC(=O)CCCCCC1(C(=O)O)CC1)C(=O)O [Compound 107k, 13-(1-Carboxycyclopropyl)-2,2-dimethyl-8-oxotridecanoic acid] | 43 | -90 | -93 | 84 | -99 | -98 | 65 to 66 | 1 |  |  |  |  |  |  | 
O=C(CCCCC1(C(=O)O)CCC1)CCCCC1(C(=O)O)CCC1 [Compound 107f, 1-[9-(1-Carboxycyclobutyl)-5-oxononyl]-1-cyclo-butanecarboxylic acid] | -1 | -32 | -58 | 10 | -40 | -59 | 69 to 70 | 121 |  |  |  |  |  |  | 
CC(C)(CCCCC(=O)CCCCC1(C(=O)O)CC1)C(=O)O [Compound 107c, 11-(1-Carboxycyclopropyl)-2,2-dimethyl-7-oxoundecanoic acid] | 104 | -84 | -93 | 248 | -20 | -64 | 49 to 52 | 0.6 |  |  |  |  |  |  | 
